Measurements reported in ChEMBL document CHEMBL3856194, “N'-((2-(6-bromo-2-oxo-2H-chromen-3-yl)-1H-indol-3-yl)methylene)benzohydrazide as a probable Bcl-2/Bcl-xL inhibitor with apoptotic and anti-metastatic potential” (Eur J Med Chem, 2016).

Key:
[1] = Cytotoxicity against human MCF7 cells assessed as cell growth inhibition after 48 hrs by MTT assay; type: functional, cell-based; conditions: MCF7, 48 h
[2] = Cytotoxicity against African green monkey Vero cells assessed as cell growth inhibition after 48 hrs by MTT assay; type: toxicity, cell-based; conditions: African green monkey (Chlorocebus sabaeus)
[3] = Cell cycle arrest in human MCF7 cells assessed as accumulation at G2/M phase at 0.5 uM after 18 to 24 hrs by propidium iodide staining based flow cytometry (reference value: 18.8 %); type: functional
MCF7 [4] = test: Induction of apoptosis in human MCF7 cells assessed as early apoptotic cells after 24 to 48 hrs by Annexin V/7-AAD staining based flow cytometry (reference value: 4.90 %); type: functional
[5] = Cell cycle arrest in human MCF7 cells assessed as accumulation at G0/G1 phase at 0.5 uM after 18 to 24 hrs by propidium iodide staining based flow cytometry (reference value: 67 %); type: functional
[6] = Cell cycle arrest in human MCF7 cells assessed as accumulation at sub-G0 phase at 0.5 uM after 18 to 24 hrs by propidium iodide staining based flow cytometry (reference value: 1.4 %); type: functional
[7] = Cell cycle arrest in human MCF7 cells assessed as accumulation at S phase at 0.5 uM after 18 to 24 hrs by propidium iodide staining based flow cytometry (reference value: 8.5 %); type: functional
MCF7 [8] = test: Induction of apoptosis in human MCF7 cells assessed as necrotic cells after 24 to 48 hrs by Annexin V/7-AAD staining based flow cytometry (reference value: 6.75 %); type: functional
MCF7 [9] = test: Induction of apoptosis in human MCF7 cells assessed as viable cells after 24 to 48 hrs by Annexin V/7-AAD staining based flow cytometry (reference value: 72.30 %); type: functional
MCF7 [10] = test: Selectivity index, ratio of IC50 for African green monkey Vero cells to IC50 for human MCF7 cells; type: functional
MCF7 [11] = test: Induction of apoptosis in human MCF7 cells assessed as late apoptotic cells after 24 to 48 hrs by Annexin V/7-AAD staining based flow cytometry (reference value: 16.05 %); type: functional

SMILES | IC50 [1] [µM] | IC50 at 48 h [2] [µM] | further results
O=C(N/N=C/c1c(-c2cc3ccccc3oc2=O)[nH]c2ccccc12)c1ccccc1 | > 200 | 121 | 
O=C(N/N=C/c1c(-c2cc3ccccc3oc2=O)[nH]c2ccccc12)c1ccccc1F | > 200 | > 200 | 
O=C(N/N=C/c1c(-c2cc3ccccc3oc2=O)[nH]c2ccccc12)c1ccccc1Cl | 164 | > 200 | 
CC[C@]1(O)C[C@H]2CN(CCc3c([nH]c4ccccc34)[C@@](C(=O)OC)(c3cc4c(cc3OC)N(C=O)[C@H]3[C@@](O)(C(=O)OC)[C@H](OC(C)=O)[C@]5(CC)C=CCN6CC[C@]43[C@@H]65)C2)C1 [VINCRISTINE] | 0.3 | 0.9 | Activity [3]: 54.6%; Activity (MCF7 [4]): 2.75%; Activity [5]: 17.9%; Activity [6]: 5.1%; Activity [7]: 7.8%; Activity (MCF7 [8]): 23.45%; Activity (MCF7 [9]): 56.1%; Ratio IC50 (MCF7 [10]): 3; Activity (MCF7 [11]): 17.7%
O=C(N/N=C/c1c(-c2cc3ccccc3oc2=O)[nH]c2ccccc12)c1ccc(Cl)cc1 | > 200 | > 200 | 
O=C(N/N=C/c1c(-c2cc3ccccc3oc2=O)[nH]c2ccccc12)c1cccc(Br)c1 | > 200 | > 200 | 
O=C(N/N=C/c1c(-c2cc3ccccc3oc2=O)[nH]c2ccccc12)c1ccc(Cl)cc1F | > 200 | > 200 | 
